Among the data in patent US20230365530A1, “QUINAZOLINE-2,4-DIAMINE DERIVATIVE AND PHARMACEUTICAL COMPOSITION FOR PREVENTING OR TREATING CANCER COMPRISING SAME AS ACTIVE INGREDIENT” (THE ASEAN FOUNDATION, priority 2020, published 2023) are IC50 values, retold here.

Some results are limits rather than exact numbers.

The target of this assay is EHMT2 (Euchromatic histone-lysine N-methyltransferase 2) (Homo sapiens (Human), UniProt Q96KQ7). As to the kind of experiment: EHMT2 enzyme inhibition, LANCE TR-FRET. The assay is classed as biochemical. The note with it: histone H3 peptide, 1 hour at room temperature. The method, then: In order to analyze the enzyme inhibitory efficacy of the compounds of Examples 1 to 89, EHMT2 (Euchromatic histone-lysine N-methyltransferase 2) enzyme activity was measured using the LANCE TR-FRET™ analysis method of Perkin Elmer. When the EHMT2 enzyme is activated, the 9th lysine residue of the biotinylated-histone peptide is methylated and the EU-conjugated antibody is combined to the methylated histone peptide. Then, when the complex is irradiated with light of excitation wavelength, the complex emits light having a wavelength of 665 nm through FRET phenomenon. Accordingly, fluorescence was measured, and IC50 values were calculated through a software to evaluate the EHMT2 enzyme activity inhibitory effect of the compounds of Examples 1 to 89.
EHMT2 (Euchromatic histone-lysine N-methyltransferase 2), sequence (Q96KQ7 whole entry): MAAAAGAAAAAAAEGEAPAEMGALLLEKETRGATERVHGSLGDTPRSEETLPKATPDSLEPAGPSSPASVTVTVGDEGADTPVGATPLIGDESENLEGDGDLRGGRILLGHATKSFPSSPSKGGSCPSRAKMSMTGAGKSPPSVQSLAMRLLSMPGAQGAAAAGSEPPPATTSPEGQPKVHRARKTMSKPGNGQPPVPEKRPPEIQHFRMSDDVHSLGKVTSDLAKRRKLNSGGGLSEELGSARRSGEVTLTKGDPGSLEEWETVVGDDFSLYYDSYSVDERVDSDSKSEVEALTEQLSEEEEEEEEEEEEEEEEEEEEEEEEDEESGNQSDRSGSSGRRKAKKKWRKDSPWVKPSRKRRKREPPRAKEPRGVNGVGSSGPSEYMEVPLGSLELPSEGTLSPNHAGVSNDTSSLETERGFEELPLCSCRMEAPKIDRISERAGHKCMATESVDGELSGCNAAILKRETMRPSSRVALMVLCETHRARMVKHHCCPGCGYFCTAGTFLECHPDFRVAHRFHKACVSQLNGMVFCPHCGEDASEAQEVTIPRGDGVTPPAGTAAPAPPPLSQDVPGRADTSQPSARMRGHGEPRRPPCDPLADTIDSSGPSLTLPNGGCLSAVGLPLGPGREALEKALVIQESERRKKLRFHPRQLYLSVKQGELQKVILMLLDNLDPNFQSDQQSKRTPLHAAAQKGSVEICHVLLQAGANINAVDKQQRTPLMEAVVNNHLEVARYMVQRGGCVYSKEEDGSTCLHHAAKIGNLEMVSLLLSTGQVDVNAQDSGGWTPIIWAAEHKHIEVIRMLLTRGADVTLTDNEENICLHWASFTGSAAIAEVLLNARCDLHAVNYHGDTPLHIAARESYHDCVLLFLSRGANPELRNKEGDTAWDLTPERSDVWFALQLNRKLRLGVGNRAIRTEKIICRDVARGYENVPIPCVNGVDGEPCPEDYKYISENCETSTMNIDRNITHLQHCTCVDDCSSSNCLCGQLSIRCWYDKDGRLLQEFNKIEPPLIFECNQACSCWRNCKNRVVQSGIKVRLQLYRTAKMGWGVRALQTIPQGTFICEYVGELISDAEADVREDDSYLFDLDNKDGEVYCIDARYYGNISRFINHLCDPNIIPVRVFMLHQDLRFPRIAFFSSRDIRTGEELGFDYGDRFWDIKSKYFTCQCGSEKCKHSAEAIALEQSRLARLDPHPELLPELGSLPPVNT
Specific experimental methods are as follows. First, the compounds of Examples 1 to 89 of 1 nM to 100 μM (4× conc.) were put into a 384 well plate (25 μL/well), and 2 μM EEMT2/G9a enzyme (4× conc.) was put into the 384 well plate (25 μL/well). The plate was then centrifuged at 1,500 rpm for 5 seconds after sealing the plate with plate sealing foil. After incubating the EHMT2/G9a enzyme, SAM, and the compounds of Examples above at room temperature for 10 minutes, 2 μM histone H3 peptide (4× conc.) was added to the 384-well plate (25 μL/well). After sealing the plate with plate sealing foil and centrifuging at 1,500 rpm for 5 seconds, an enzymatic reaction was performed at room temperature for 1 hour. Upon completion of the enzyme reaction, 5 μL each of 200 nM Ulight™-Streptavidin (4× conc.) and 8 nM Eu-antibody (4× conc.) was added to each well of the plate. The plate was sealed with plate sealing foil, centrifuged at 1,500 rpm for 5 seconds and reacted at room temperature for 1 hour. The signal values were measured with Envision (Ex 320 nm, Em 665 nm), and all background values obtained by reacting without enzyme were deleted from the measured raw data values. Then, the EHMT2 enzyme activity inhibitory effect of the compounds of Examples 1 to 89 was converted into % values, and compared with the EHMT2 activity when treated with 4% DMSO vehicle (=0 nM compound) as 100%.
For orientation: In TR-FRET formats the signal depends on donor and acceptor labels being close together.
The term IC50 denotes the midpoint of a concentration-inhibition curve. Low values mean higher potency, high ones lower potency. Molecule `COc1cc2c(NC3CCN(C(C)C)CC3)nc(N3CCCCC3)nc2cc1C#CCCN1CC(F)C1` [Example 33, 7-(4-(3-fluoroazetidine-1-yl)-1-butyne-1-yl)-N-(1-isopropylpiperidine-4-yl)-6-methoxy-2-(piperidine-1-yl)quinazoline-4-amine] showed an IC50 of 10 to 100 µM. For `COc1cc2c(NC3CC(C)(C)NC(C)(C)C3)nc(N3CCCCC3)nc2cc1C#CCCN(C)C` [Example 27, 7-(4-(dimethylamino)-1-butyne-1-yl)-6-methoxy-2-(piperidine-1-yl)-N-(2,2,6,6,-tetramethylpiperidine-4-yl)quinazoline-4-amine], the IC50 was 0.1 to 1 µM. The molecule `COc1cc2c(NC3CCN(C(C)C)CC3)nc(N3CCCCC3)nc2cc1C#CCCN1CCCC1` [Example 16, N-(1-isopropylpiperidine-4-yl)-6-methoxy-2-(piperidine-1-yl)-7-(4-(pyrrolidine-1-yl)-1-butyne-1-yl)quinazoline-4-amine] displayed a 50% inhibitory concentration (IC50) below 0.1 µM. `COc1cc2c(NC3CCN(C(C)C)CC3)nc(N3CCCC3)nc2cc1/C=C/CCN(C)C` [Example 86, (E)-7-(4-(dimethylamino)-1-butene-1-yl)-N-(1-isopropylpiperidine-4-yl)-6-methoxy-2-(pyrrolidine-1-yl)quinazoline-4-amine] came in with an IC50 of 0.1 to 1 µM. Under `COc1cc2c(NC3CCN(C(C)C)CC3)nc(N3CCCCCC3)nc2cc1C#CCCN1CCCC1` [Example 36] stands below 0.1 µM; under `COc1cc2c(NC3CCN(C(C)C)CC3)nc(N3CCCCC3)nc2cc1C#CCCN1CC[C@H](F)C1` [Example 29, (S)-7-(4-(3-fluoropyrrolidine-1-yl)-1-butyne-1-yl)-N-(1-isopropylpiperidine-4-yl)-6-methoxy-2-(piperidine-1-yl)quinazoline-4-amine], 0.1 to 1 µM. Take `COc1cc2c(NCCc3ccncc3)nc(N3CCCCC3)nc2cc1C#CCCN(C)C` [Example 34]: the half-maximal inhibitory concentration (IC50) is 10 to 100 µM. `CNc1nc(N2CCCC2)nc2cc(C#CCCN3CCCC3)c(OC)cc12` [Example 81, 6-methoxy-N-methyl-2-(pyrrolidine-1-yl)-7-(4-(pyrrolidine-1-yl)-1-butyne-1-yl)quinazoline-4-amine] returned an IC50 of 0.1 to 1 µM.

`CCN1CCC(Nc2nc(N3CCCN(C)CC3)nc3cc(C#CCCN4CCCC4)c(OC)cc23)CC1` [Example 65, N-(1-ethylpiperidine-4-yl)-6-methoxy-2-(4-methyl-1,4-diazepane-1-yl)-7-(4-(pyrrolidine-1-yl)-1-butyne-1-yl) quinazoline-4-amine] registered an IC50 below 0.1 µM. As for `COc1cc2c(NCCN(C)C)nc(N3CCCCC3)nc2cc1C#CCCN(C)C` [Example 28, N1-(7-(4-(dimethylamino)-1-butyne-1-yl)-6-methoxy-2-(piperidine-1-yl)quinazoline-4-yl)-N2,N2-dimethylethane-1,2-diamine], the figure is 0.1 to 1 µM. The molecule `COc1cc2c(NCc3cccnc3)nc(N3CCCC3)nc2cc1C#CCCN1CCCC1` [Example 71, 6-methoxy-N-(pyridine-3-ylmethyl)-2-(pyrrolidine-1-yl)-7-(4-(pyrrolidine-1-yl)-1-butyne-1-yl)quinazoline-4-amine] returned an IC50 of 0.1 to 1 µM.

`COc1cc2c(NC3CCN(C(C)C)CC3)nc(N3C[C@@H]4C[C@@H]4[C@@H]3CO)nc2cc1C#CCCN1CCCC1` [Example 46, ((1S,2R,5R)-3-(4-((1-isopropylpiperidine-4-yl)amino)-6-methoxy-7-(4-(pyrrolidine-1-yl)-1-butyne-1-yl)quinazoline-2-yl)-3-azabicyclo[3.1.0]hexane-2-yl)methanol]: the IC50 is below 0.1 µM. As for `COc1cc2c(NCc3ccncc3)nc(N3CCCCC3)nc2cc1C#CCCN(C)C` [Example 32, 7-(4-(dimethylamino)-1-butyne-1-yl)-6-methoxy-2-(piperidine-1-yl)-N-(pyridine-4-ylmethyl)quinazoline-4-amine], the figure is 10 to 100 µM. Take `COc1cc2c(NC3CCN(C(C)C)CC3)nc(N3CCCN(C)CC3)nc2cc1C#CCCN1CCCC1` [Example 48, N-(1-isopropylpiperidine-4-yl)-6-methoxy-2-(4-methyl-1,4-diazepane-1-yl)-7-(4-(pyrrolidine-1-yl)-1-butyne-1-yl)quinazoline-4-amine]: the IC50 was below 0.1 µM. For `COc1cc2c(NC3CCN(C(C)C)CC3)nc(N3CCCCC3)nc2cc1C#CCCC(=O)N1CCCC1` [Example 2, 5-(4-((1-isopropylpiperidine-4-yl)amino)-6-methoxy-2-(piperidine-1-yl)quinazoline-7-yl)-1-(pyrrolidine-1-yl)4-pentyne-1-one], the concentration for half-maximal inhibition (IC50) was 10 to 100 µM.

`COc1cc2c(NC3CCN(C(C)C)CC3)nc(N3CCC(N(C)C)CC3)nc2cc1C#CCCN(C)C` [Example 11, 7-(4-(dimethylamino)-1-butyne-1-yl)-2-(4-(dimethylamino)piperidine-1-yl)-N-(1-isopropylpiperidine-4-yl)-6-methoxyquinazoline-4-amine] yielded an IC50 of 1 to 10 µM. The molecule `COc1cc2c(NC3CCN(C(C)C)CC3)nc(N3CCCN(C)CC3)nc2cc1C#CCCN(C)C` [Example 17, 7-(4-(dimethylamino)-1-butyne-1-yl)-N-(1-isopropylpiperidine-4-yl)-6-methoxy-2-(4-methyl-1,4-diazepane-1-yl)quinazoline-4-amine] came in with an IC50 below 0.1 µM. Under `COc1cc2c(NC3CCN(C4CC4)CC3)nc(N3CCCCC3)nc2cc1C#CCCN(C)C` [Example 24, N-(1-cyclopropylpiperidine-4-yl)-7-(4-(dimethylamino)-1-butyne-1-yl)-6-methoxy-2-(piperidine-1-yl)quinazoline-4-amine] stands below 0.1 µM; under `COc1cc2c(NC3CCN(CCO)CC3)nc(N3CCCCC3)nc2cc1C#CCCN1CCCC1` [Example 69, 2-(4-((6-methoxy-2-(piperidine-1-yl)-7-(4-(pyrrolidine-1-yl)-1-butyne-1-yl)quinazoline-4-yl)amino)piperidine-1-yl)ethanol], below 0.1 µM. The molecule `CCCN1CCC(Nc2nc(N(C)C)nc3cc(C#CCCN4CCCC4)c(OC)cc23)CC1` [Example 83, 6-methoxy-N2,N-dimethyl-N4-(1-propylpiperidine-4-yl)-7-(4-(pyrrolidine-1-yl)-1-butyne-1-yl)quinazoline-2,4-diamine] registered an IC50 below 0.1 µM.

The molecule `COc1cc2c(NC3CCN(C4CC4)CC3)nc(N3CC[C@@H](F)C3)nc2cc1C#CCCN1CCCC1` [Example 74, (R)-N-(1-cyclopropylpiperidine-4-yl)-2-(3-fluoropyrrolidine-1-yl)-6-methoxy-7-(4-(pyrrolidine-1-yl)-1-butyne-1-yl)quinazoline-4-amine] showed a concentration for half-maximal inhibition (IC50) of 0.1 to 1 µM.

As for `COc1cc2c(NC3CCN(C(C)C)CC3)nc(N(C)C)nc2cc1C#CCCN1CCCCC1` [Example 44, N-(1-isopropylpiperidine-4-yl)-6-methoxy-N2,N2-dimethyl-7-(4-(piperidine-1-yl)-1-butyne-1-yl)quinazoline-2,4-diamine], the IC50 is below 0.1 µM. In turn, `CCCN1CCC(Nc2nc(N3CC[C@@H](F)C3)nc3cc(C#CCCN4CCCC4)c(OC)cc23)CC1` [Example 84, (R)-2-(3-fluoropyrrolidine-1-yl)-6-methoxy-N-(1-propylpiperidine-4-yl)-7-(4-(pyrrolidine-1-yl)-1-butyne-1-yl)quinazoline-4-amine] came in with an IC50 below 0.1 µM.
